The values below come from US20120270875A1, “PYRIMIDINE AMIDE COMPOUNDS” (priority 2011, published 2012).

Test [1] relates to PBMC's from two healthy donors. The experiment in a line: Human Mixed Lymphocyte Reaction (hMLR). Type of test: cell-based. The conditions noted are these: 3H-thymidine incorporation, read-out: human MLR (IC50). The method, then: Human Mixed Lymphocyte Reaction (hMLR)
PBMC's were isolated from two healthy donors by Ficoll gradient. Cells were resuspended with 4 mL assay media and counted with a Coulter Counter. Both cell populations were resuspended to 1×10^7/mL. Stimulator cells were irradiated for 2.5 min (2000 RAD) in cesium irradiator. 5×10^5 cells were added to duplicate wells of the plate. Included were quadruplicate wells receiving responder cells alone and stimulator cells alone. The compound to be tested was solubilized in DMSO. A series of 1:3 dilutions were performed to achieve a concentration range of 0.45 nM-3 uM. One hundred μl of the solutions to be tested were added to the cell plate (100 μl of 2% DMSO/media added to control wells). Plates were then incubated for 2.5 days at 37° C. with 5% CO2. Plates were pulsed with 50 μl/well 3H-thymidine at 0.5 uCi/well then incubated for 6 hours at 37° C. with 5% CO2. Cells were harvested using Cell Harvester (TomTec) and counted on TopCount (Perkin Elmer).

Test [2] deals with Mac-1/ICAM-1 (Homo sapiens, UniProt P05107+P11215). The experiment in a line: Mac-1/ICAM-1 ELISA. The conditions noted are these: Mac-1 coated plates, 5dICAM-Fc binding. The method, then:
(§1) sLFA-1/ICAM-1 ELISA and Mac-1/ICAM-1 ELISA
(§2) Plates were coated with either 50 μl/well of 2.0 ug/ml solution of sLFA-1 or Mac-1 receptor in divalent cation buffer (1 mM MnCl2, 0.14M NaCl, 20 mM HEPES pH 7.2) at 4° C. overnight. Two hundred fifty μl of blocking buffer (1% BSA in divalent cation buffer) was added to each well 1 hour at 37° C. Plates were washed 3 times with wash buffer (TBS/0.05% Tween-20/1 mM MnCl2). The compound to be tested was solubilized in DMSO. A series of 1:3 dilutions were performed to achieve a concentration range of 0.45 nM-3 uM. Fifty μl of binding buffer (0.5% BSA in divalent cation buffer)/1% DMSO and 50 μl of the solutions to be tested were added to the appropriate wells and incubated for 1 hour. Fifty μl of 5dICAM-Fc (27 ng/ml) was added to the appropriate wells and 50 μl binding buffer was added to non-specific binding wells and incubated for 2 hours and washed. One hundred μl of 1:4000 HRP-goat anti-huIgG was added to each well and incubated for 1 hour and washed. One hundred μl of 1:1 TMB solution was added to each well and developed for 20 min at room temperature. Color development was stopped by adding 100 μl H3PO4 to each well. Absorbance was measured at 450 nm.

The target in test [3] is sLFA-1/ICAM-1 (Homo sapiens, UniProt P05107+P20701, DEL701-769). The test is described as follows: sLFA-1/ICAM-1 ELISA. The conditions noted are these: sLFA-1 coated plates, 5dICAM-Fc binding, ELISA; read-out: LFA-1/ICAM (IC50). Format: binding. The method, then: as §1, §2
Sequence of sLFA-1/ICAM-1 (P20701 26-1090 limits assumed, stated change not applied): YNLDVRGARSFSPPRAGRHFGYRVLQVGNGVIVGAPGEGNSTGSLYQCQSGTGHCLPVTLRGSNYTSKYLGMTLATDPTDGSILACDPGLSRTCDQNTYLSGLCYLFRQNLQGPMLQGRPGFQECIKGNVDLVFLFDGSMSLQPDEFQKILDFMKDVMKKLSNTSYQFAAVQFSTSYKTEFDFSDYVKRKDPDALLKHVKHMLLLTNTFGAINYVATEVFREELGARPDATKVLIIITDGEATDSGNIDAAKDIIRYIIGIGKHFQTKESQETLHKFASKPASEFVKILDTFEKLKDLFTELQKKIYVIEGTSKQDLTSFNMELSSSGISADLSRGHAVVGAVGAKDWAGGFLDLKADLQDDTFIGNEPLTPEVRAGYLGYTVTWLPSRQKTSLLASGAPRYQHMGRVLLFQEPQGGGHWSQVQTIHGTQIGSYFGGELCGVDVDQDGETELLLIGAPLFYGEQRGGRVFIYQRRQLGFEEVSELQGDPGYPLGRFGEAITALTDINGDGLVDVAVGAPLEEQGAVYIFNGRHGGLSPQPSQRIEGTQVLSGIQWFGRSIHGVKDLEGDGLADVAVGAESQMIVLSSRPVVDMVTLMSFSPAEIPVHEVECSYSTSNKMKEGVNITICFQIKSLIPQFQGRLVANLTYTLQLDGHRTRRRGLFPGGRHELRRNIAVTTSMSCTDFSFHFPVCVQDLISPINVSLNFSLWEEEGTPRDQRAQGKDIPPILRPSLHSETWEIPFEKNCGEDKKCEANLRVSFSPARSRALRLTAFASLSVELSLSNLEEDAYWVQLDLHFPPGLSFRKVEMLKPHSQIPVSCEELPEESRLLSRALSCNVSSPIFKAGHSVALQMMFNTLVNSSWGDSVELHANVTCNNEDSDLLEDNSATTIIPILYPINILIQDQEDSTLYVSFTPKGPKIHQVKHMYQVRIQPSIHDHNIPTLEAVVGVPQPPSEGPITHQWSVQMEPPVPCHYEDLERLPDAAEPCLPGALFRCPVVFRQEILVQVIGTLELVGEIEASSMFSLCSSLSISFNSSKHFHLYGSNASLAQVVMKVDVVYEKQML
Sequence of sLFA-1/ICAM-1 (P05107 23-700 limits assumed, stated change not applied): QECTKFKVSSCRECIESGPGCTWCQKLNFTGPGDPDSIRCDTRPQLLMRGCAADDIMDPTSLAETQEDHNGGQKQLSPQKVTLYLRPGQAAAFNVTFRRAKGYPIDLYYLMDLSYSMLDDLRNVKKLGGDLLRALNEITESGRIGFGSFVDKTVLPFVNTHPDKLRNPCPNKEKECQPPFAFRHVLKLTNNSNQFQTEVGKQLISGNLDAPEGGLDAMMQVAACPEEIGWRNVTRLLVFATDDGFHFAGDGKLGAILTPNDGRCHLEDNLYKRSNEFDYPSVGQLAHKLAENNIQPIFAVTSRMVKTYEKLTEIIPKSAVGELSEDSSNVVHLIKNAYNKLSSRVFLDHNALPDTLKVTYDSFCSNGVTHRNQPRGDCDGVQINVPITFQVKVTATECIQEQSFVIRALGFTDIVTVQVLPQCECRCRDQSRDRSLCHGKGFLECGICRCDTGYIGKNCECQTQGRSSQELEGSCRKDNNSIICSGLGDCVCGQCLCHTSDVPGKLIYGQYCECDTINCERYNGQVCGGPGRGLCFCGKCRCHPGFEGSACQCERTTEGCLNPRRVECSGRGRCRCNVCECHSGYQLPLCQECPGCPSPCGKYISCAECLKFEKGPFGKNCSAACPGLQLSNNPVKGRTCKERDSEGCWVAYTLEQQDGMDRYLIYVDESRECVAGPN
(ELISA stands for enzyme-linked immunosorbent assay.)

Sequence of Mac-1/ICAM-1 (P05107 23-769, other chains not shown): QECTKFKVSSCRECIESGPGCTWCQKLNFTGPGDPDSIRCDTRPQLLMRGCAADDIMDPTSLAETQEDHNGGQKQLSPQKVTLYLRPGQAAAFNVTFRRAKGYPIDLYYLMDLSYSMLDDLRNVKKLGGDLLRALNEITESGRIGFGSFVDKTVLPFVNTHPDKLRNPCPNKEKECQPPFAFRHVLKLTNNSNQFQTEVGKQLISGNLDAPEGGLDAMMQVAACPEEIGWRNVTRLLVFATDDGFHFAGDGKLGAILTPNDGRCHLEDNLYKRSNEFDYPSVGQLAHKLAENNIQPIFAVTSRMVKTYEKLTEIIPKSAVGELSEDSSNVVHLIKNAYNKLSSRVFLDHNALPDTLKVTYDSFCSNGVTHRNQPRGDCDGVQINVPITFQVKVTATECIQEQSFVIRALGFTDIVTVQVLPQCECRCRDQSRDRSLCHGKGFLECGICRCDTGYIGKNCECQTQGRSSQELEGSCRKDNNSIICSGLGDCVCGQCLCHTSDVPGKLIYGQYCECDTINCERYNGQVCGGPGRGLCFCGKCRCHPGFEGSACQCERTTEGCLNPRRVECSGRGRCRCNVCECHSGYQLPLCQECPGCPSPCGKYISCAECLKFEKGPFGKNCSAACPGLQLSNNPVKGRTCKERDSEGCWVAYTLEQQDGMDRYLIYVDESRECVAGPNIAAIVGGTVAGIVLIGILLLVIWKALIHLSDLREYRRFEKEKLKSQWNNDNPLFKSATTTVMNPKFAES

As for `Cc1nc(NCCCc2cccc(O)c2)nc(C)c1C(=O)N[C@@H](CNC(=O)c1cccc(O)c1)C(=O)O` [Example 83], the IC50 came to 138 nM in test [1], 25 nM in test [2] and 28 nM in test [3].
Turning to `Cc1nc(CCCCc2cccc(O)c2)nc(C)c1C(=O)N[C@@H](CNC(=O)c1cccs1)C(=O)O` [Example 1, (S)-2-({2-[4-(3-hydroxy-phenyl)-butyl]-4,6-dimethyl-pyrimidine-5-carbonyl}-amino)-3-[(thiophene-2-carbonyl)-amino]-propionic acid], the IC50 amounted to 4460 nM in test [1], 441 nM in test [2] and 73 nM in test [3].
On the same counts, the results for `Cc1nc(NCCCc2cccc(O)c2)nc(C)c1C(=O)N[C@@H](CNC(=O)c1cc(O)cc(O)c1)C(=O)O` [Example 81] are 73 nM, 39 nM and 12 nM.
On to `Cc1nc(NCCCc2cccc3[nH]ncc23)nc(C)c1C(=O)N[C@@H](CNC(=O)c1cccs1)C(=O)O` [Example 6, (S)-2-({2-[3-(1H-indazol-4-yl)-propylamino]-4,6-dimethyl-pyrimidine-5-carbonyl}-amino)3-[(thiophene-2-carbonyl)-amino]-propionic acid], for which the values for the IC50 in test [1], in test [2] and in test [3] were 374 nM, 20 nM and 21 nM, respectively.
In the case of `Cc1nc(OCCCc2cccc(O)c2)nc(C)c1C(=O)N[C@@H](CNC(=O)c1cccs1)C(=O)O` [Example 3, (S)-2-({2-[3-(3-hydroxy-phenyl)-propoxy]-4,6-dimethyl-pyrimidine-5-carbonyl}-amino)-3-[(thiophene-2-carbonyl)-amino]-propionic acid], the IC50 in test [1] is 574 nM; in test [2] it was 57 nM; in test [3], 32 nM.
Turning to `Cc1nc(NCC#Cc2cccc(O)c2)nc(C)c1C(=O)N[C@@H](CNC(=O)c1cccs1)C(=O)O` [Example 61, (S)-2-({2-[3-(3-Hydroxy-phenyl)-prop-2-ynylamino]-4,6-dimethyl-pyrimidine-5-carbonyl}-amino)-3-[(thiophene-2-carbonyl)-amino]-propionic acid], the IC50 in test [1] worked out at 1180 nM; in test [2], 55 nM; in test [3], 41 nM.
Consider `Cc1nc(NCC#Cc2cccc3[nH]ncc23)nc(C)c1C(=O)N[C@@H](CNC(=O)c1cccs1)C(=O)O` [Example 62, (S)-2-({2-[3-(1H-Indazol-4-yl)-prop-2-ynylamino]-4,6-dimethyl-pyrimidine-5-carbonyl}-amino)-3-[(thiophene-2-carbonyl)-amino]-propionic acid], for which the values for the IC50 in test [1], in test [2] and in test [3] were 3810 nM, 45 nM and 80 nM, respectively.
On to `Cc1nc(NCCCc2ccc3cn[nH]c3c2)nc(C)c1C(=O)N[C@@H](CNC(=O)c1cccs1)C(=O)O` [Example 63, (S)-2-({2-[3-(1H-Indazol-6-yl)-propylamino]-4,6-dimethyl-pyrimidine-5-carbonyl}-amino)-3-[(thiophene-2-carbonyl)-amino]-propionic acid], for which the IC50 in test [2] amounted to 670 nM; in test [3], 323 nM.
As for `Cc1nc(NCCCc2cccc(O)c2)nc(C)c1C(=O)N[C@@H](CNC(=O)c1cccs1)C(=O)O` [Example 8, (S)-2-({2-[3-(3-hydroxy-phenyl)-propylamino]-4,6-dimethyl-pyrimidine-5-carbonyl}-amino)3-[(thiophene-2-carbonyl)-amino]-propionic acid], the IC50 in test [1] turned out to be 678 nM; in test [2] it was 120 nM; in test [3], 40 nM.
Regarding `Cc1nc(NCCCc2cc(O)cc(F)c2)nc(C)c1C(=O)N[C@@H](CNC(=O)c1cccs1)C(=O)O` [Example 64, (S)-2-({2-[3-(3-Fluoro-5-hydroxy-phenyl)-propylamino]-4,6-dimethyl-pyrimidine-5-carbonyl}-amino)-3-[(thiophene-2-carbonyl)-amino]-propionic acid], the IC50 in test [1] stood at 1350 nM; in test [2], 23 nM; in test [3], 35 nM.
Turning to `CC(=O)NC[C@H](NC(=O)c1c(C)nc(NCCCc2cccc3[nH]ncc23)nc1C)C(=O)O` [Example 4, (S)-3-acetylamino-2-({2-[3-(1H-indazol-4-yl)-propylamino]-4,6-dimethyl-pyrimidine-5-carbonyl}-amino)-propionic acid], the values for the IC50 in test [1] and in test [3] were 10000 nM and 120 nM, respectively.
